Results on 36 compounds are retold here after ChEMBL document CHEMBL1130566, “A nonpeptidic agonist ligand of the human C5a receptor: Synthesis, binding affinity optimization and functional characterization” (Bioorg Med Chem Lett, 1997).

Experiment [1] addresses T1, C5a anaphylatoxin chemotactic receptor 1 (Homo sapiens) (UniProt P21730).
T1 sequence (whole entry): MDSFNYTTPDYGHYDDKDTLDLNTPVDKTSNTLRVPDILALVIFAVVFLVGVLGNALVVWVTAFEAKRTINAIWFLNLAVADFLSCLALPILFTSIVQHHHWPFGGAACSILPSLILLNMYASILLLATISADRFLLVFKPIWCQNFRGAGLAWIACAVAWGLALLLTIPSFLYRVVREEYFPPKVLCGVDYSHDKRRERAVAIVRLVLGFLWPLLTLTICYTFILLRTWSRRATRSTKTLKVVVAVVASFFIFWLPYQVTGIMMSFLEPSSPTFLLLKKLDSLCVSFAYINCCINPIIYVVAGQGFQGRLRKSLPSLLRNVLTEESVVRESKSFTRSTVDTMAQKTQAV
In words: Inhibition of [125I]C5a binding to C5a anaphylatoxin chemotactic receptor of human neutrophil membrane preparations at 30 uM.

In experiment [2] the target is T2, C5a anaphylatoxin chemotactic receptor 1 (Homo sapiens, UniProt P21730).
T2 sequence (P21730 whole entry): T1 sequence (whole entry)
Description: Tested for the ability to compete with [125I]-CO13 ([125I]-Y-F-K-A-Cha-G-L-dF-R) for binding to C5a anaphylatoxin chemotactic receptor from human neutrophil membrane preparations.

For experiment [3], the target named is T1, C5a anaphylatoxin chemotactic receptor 1 (Homo sapiens). In words: Tested for the ability to compete with [125I]C5a for binding to human C5a anaphylatoxin chemotactic receptor of human neutrophil membrane preparations at 30 uM concentration.
For experiment [4], the target named is T2, C5a anaphylatoxin chemotactic receptor 1. Description: Tested for its ability to compete with [125I]C5a for binding to C5a anaphylatoxin chemotactic receptor of human neutrophil membrane preparations.
The target of experiment [5] is T1, C5a anaphylatoxin chemotactic receptor 1 (Homo sapiens). Description: Tested for the ability to compete with [125I]-CO13 [125I]-Y-F-K-A-Cha-G-L-dF-R) for binding to C5a anaphylatoxin chemotactic receptor of human neutrophil membrane preparations at 30 uM concentration.
Experiment [6] shares this target. In words: Tested for […] to evaluate its ability to block C5a induced myeloperoxide (MPO release from neutrophils (for antagonists) or induce MPO release (for agonists).
Experiment [7] deals with T2, C5a anaphylatoxin chemotactic receptor 1. Description: Tested for the its ability to compete with [125I]-CO13 [125I]-Y-F-K-A-Cha-G-L-dF-R) for binding to C5a anaphylatoxin chemotactic receptor of human neutrophil membrane preparations.
The target of experiment [8] is T1, C5a anaphylatoxin chemotactic receptor 1 (Homo sapiens). Description: Tested for the ability to compete with [125I]-CO13 [125I]-Y-F-K-A-Cha-G-L-dF-R) for binding to C5a anaphylatoxin chemotactic receptor of human neutrophil membrane preparations. Particulars: concentration not given here.

In experiment [1], `N=C(N)NCCC[C@H]1NC(=O)N([C@H](Cc2ccc(F)cc2)C(=O)N2CCC3(CCc4ccccc43)CC2)C1=O` registered an inhibition of 75%. The same compound displayed an IC50 in experiment [2] of 230 nM.
In the case of `N=C(N)NCCC[C@H]1NC(=O)N([C@@H](C(=O)N2CCC3(CCc4ccccc43)CC2)C(c2ccccc2)c2ccccc2)C1=O`, the inhibition in experiment [3] stood at 75%.
For `N=C(N)NCCC[C@H]1NC(=O)N([C@H](Cc2ccccc2)C(=O)N2CCC3(CCc4ccccc43)CC2)C1=O`, the figures for the IC50 in experiment [2] and in experiment [4] were 800 nM and 8000 nM, respectively.
In turn, `N=C(N)NCCC[C@@H]1NC(=O)N([C@H](Cc2ccccc2)C(=O)N2CCC3(CCc4ccccc43)CC2)C1=O` showed an inhibition in experiment [1] of 39%. The 50% inhibitory concentration (IC50) in experiment [2] amounted to 4000 nM.
As for `NC(=O)NCCC[C@H]1NC(=O)N([C@H](CC2CCCCC2)C(=O)N2CCC3(CCc4ccccc43)CC2)C1=O`, in experiment [5], the inhibition turned out to be 58%.
On to `N=C(N)NCCC[C@H]1NC(=O)N([C@H](CC2CCCCC2)C(=O)N2CCC(c3ccccc3)CC2)C1=O`, for which the IC50 in experiment [2] is 30 nM; in experiment [4], 400 nM. The Release in experiment [6] stood at 88%.
Regarding `CC(C)[C@H](C(=O)N1CCC2(CCc3ccccc32)CC1)N1C(=O)N[C@H](CCCN=C(N)N)C1=O`, the inhibition in experiment [1] turned out to be 70%. The IC50 in experiment [2] was determined as 1200 nM.
Take `N=C(N)NCCC[C@H]1NC(=O)N([C@H](CC2CCCCC2)C(=O)N2CCC3(C=Cc4ccccc43)CC2)C1=O`: the IC50 in experiment [2] worked out at 300 nM; in experiment [4], 1500 nM.
`NCCCC[C@H]1NC(=O)N([C@H](CC2CCCCC2)C(=O)N2CCC3(CCc4ccccc43)CC2)C1=O` gave an IC50 in experiment [2] of 4000 nM.
For `Cc1cccc(C)c1N1CCN(C(=O)[C@@H](CC2CCCCC2)N2C(=O)N[C@H](CCCN=C(N)N)C2=O)CC1`, the values for the IC50 in experiment [2] and in experiment [4] were 40 nM and 220 nM, respectively. In experiment [6], this compound showed a Release of 78%.
On to `N=C(N)NCCC[C@H]1NC(=O)N([C@H](Cc2cccc3ccccc23)C(=O)N2CCC3(CCc4ccccc43)CC2)C1=O`, for which the inhibition in experiment [1] was determined as 77%. The compound also returned an IC50 in experiment [2] of 11000 nM.
Turning to `CC(C)C[C@H](C(=O)N1CCC2(CCc3ccccc32)CC1)N1C(=O)N[C@H](CCCN=C(N)N)C1=O`, the IC50 in experiment [2] came out at 450 nM; in experiment [4], 2000 nM. In experiment [6], this compound had a Release of 10%.
On to `Cc1ccccc1N1CCN(C(=O)[C@@H](CC2CCCCC2)N2C(=O)N[C@H](CCCN=C(N)N)C2=O)CC1`, for which the IC50 in experiment [2] came to 40 nM; in experiment [4], 350 nM. In experiment [6], this compound yielded a Release of 76%.
In experiment [1], `N=C(N)NCCC[C@H]1NC(=O)N([C@H](CC2CCCCC2)C(=O)N2CCN(c3ccccc3)CC2)C1=O` yielded an inhibition of 66%. The compound also gave an IC50 in experiment [2] of 1000 nM.
`CSCC[C@H](C(=O)N1CCC2(CCc3ccccc32)CC1)N1C(=O)N[C@H](CCCN=C(N)N)C1=O`: in experiment [1], the inhibition amounted to 57%. The same compound gave an IC50 in experiment [2] of 3400 nM.
As to `Cc1ccc(N2CCN(C(=O)[C@@H](CC3CCCCC3)N3C(=O)N[C@H](CCCN=C(N)N)C3=O)CC2)c(C)c1`, the values for the IC50 in experiment [2] and in experiment [4] were 60 nM and 300 nM, respectively. In experiment [6], this compound returned a Release of 90%.
Turning to `N=C(N)NCCC[C@H]1NC(=O)N([C@@H](Cc2ccccc2)C(=O)N2CCC3(CCc4ccccc43)CC2)C1=O`, the inhibition in experiment [1] turned out to be 3%; in experiment [5], 15%.
Compound `N=C(N)NCCC[C@H]1NC(=O)N([C@H](Cc2ccc3ccccc3c2)C(=O)N2CCC3(CCc4ccccc43)CC2)C1=O` registered an inhibition in experiment [1] of 67%. In experiment [2], this compound displayed an IC50 of 2000 nM.
With `N=C(N)NCCC[C@H]1NC(=O)N([C@H](Cc2ccc(-c3ccccc3)cc2)C(=O)N2CCC3(CCc4ccccc43)CC2)C1=O`, the IC50 in experiment [7] was 900 nM; in experiment [4] it was 2300 nM.
In the case of `N=C(N)NCCC[C@H]1NC(=O)N(C(Cc2ccccc2)C(=O)N2CCC3(CCc4ccccc43)CC2)C1=O` (stereo partly specified), the inhibition in experiment [1] is 60%; in experiment [5], 78%.
For `N=C(N)NCCC[C@H]1NC(=O)N([C@H](Cc2c[nH]c3ccccc23)C(=O)N2CCC3(CCc4ccccc43)CC2)C1=O`, the values for the IC50 in experiment [2] and in experiment [4] were 450 nM and 5000 nM, respectively.
The compound `N=C(N)NCCCC[C@H]1NC(=O)N([C@H](CC2CCCCC2)C(=O)N2CCC3(CCc4ccccc43)CC2)C1=O` had an IC50 in experiment [2] of 300 nM.
Regarding `N=C(N)NCCC[C@H]1NC(=O)N([C@H](CC2CCCCC2)C(=O)N2CCC3(CCc4ccccc43)CC2)C1=O`, the IC50 in experiment [2] is 25 nM; in experiment [4] it was 300 nM. The same compound displayed a Release in experiment [6] of 86%.
For `CC[C@@H](C)[C@H](C(=O)N1CCC2(CCc3ccccc32)CC1)N1C(=O)N[C@H](CCCN=C(N)N)C1=O`, the IC50 in experiment [2] was determined as 200 nM; in experiment [4], 1200 nM. The same compound showed a Release in experiment [6] of 31%.
Consider `N=C(N)NCCC[C@H]1NC(=O)N([C@H](CC(=O)N2CCCCC2)C(=O)N2CCC3(CCc4ccccc43)CC2)C1=O`, for which the inhibition in experiment [1] was 26%; in experiment [5], 52%.
With `N=C(N)NCCC[C@H]1NC(=O)N([C@H](CC(=O)O)C(=O)N2CCC3(CCc4ccccc43)CC2)C1=O`, in experiment [1], the inhibition was found to be 0%.
`CC(O)[C@H](C(=O)N1CCC2(CCc3ccccc32)CC1)N1C(=O)N[C@H](CCCN=C(N)N)C1=O` (stereo partly specified): the inhibition turned out to be 14% in experiment [1] and 57% in experiment [5].
`CC(C)c1ccccc1N1CCN(C(=O)[C@@H](CC2CCCCC2)N2C(=O)N[C@H](CCCN=C(N)N)C2=O)CC1`: in experiment [5], the inhibition came to 14%.
In turn, `N=C(N)NCCC[C@H]1NC(=O)N([C@H](CC2CCCCC2)C(=O)N2CCC3(CC2)CC(=O)c2ccccc23)C1=O` displayed an inhibition in experiment [1] of 58%. In addition, the IC50 in experiment [2] is 1500 nM.
In turn, `N=C(N)NCCC[C@H]1NC(=O)N([C@H](Cc2ccc(O)cc2)C(=O)N2CCC3(CCc4ccccc43)CC2)C1=O` gave an IC50 in experiment [2] of 4000 nM.
In experiment [1], `N=C(N)NCCC[C@H]1NC(=O)N([C@H](CC2CCC(C3CCCCC3)CC2)C(=O)N2CCC3(CCc4ccccc43)CC2)C1=O` (stereo partly specified) registered an inhibition of 26%. In experiment [2], this compound displayed an IC50 of 5000 nM.
In the case of `CCCC[C@H](C(=O)N1CCC2(CCc3ccccc32)CC1)N1C(=O)N[C@H](CCCN=C(N)N)C1=O`, the inhibition in experiment [8] amounted to 54%; in experiment [1], 20%.
Regarding `CCC[C@H](C(=O)N1CCC2(CCc3ccccc32)CC1)N1C(=O)N[C@H](CCCN=C(N)N)C1=O`, the inhibition in experiment [1] stood at 63%. Besides, the IC50 in experiment [2] worked out at 3000 nM.
In experiment [1], `N=C(N)NCCC[C@H]1NC(=O)N(C(CCc2ccccc2)C(=O)N2CCC3(CCc4ccccc43)CC2)C1=O` (stereo partly specified) displayed an inhibition of 46%. This compound had an IC50 in experiment [2] of 3000 nM.
On to `CC(=O)OCC1(c2ccccc2)CCN(C(=O)[C@@H](CC2CCCCC2)N2C(=O)N[C@H](CCCN=C(N)N)C2=O)CC1`, for which the inhibition amounted to 35% in experiment [1] and 48% in experiment [5].
Consider `Nc1ccc(C[C@H]2NC(=O)N([C@H](CC3CCCCC3)C(=O)N3CCC4(CCc5ccccc54)CC3)C2=O)cc1`, for which the inhibition in experiment [5] stood at 75%.
